Assay results reported in ChEMBL document CHEMBL5465560, “Selectivity Literature for EUbOPEN Chemogenomic Library” (2024).

Assays:
[1] = biological target: Serine/threonine-protein kinase WNK2 (Homo sapiens) (UniProt Q9Y3S1); test: Selectivity interaction (ActivX KiNativ screen (kinase selectivity in THP-1 cell lysates)) EUB0000639a WNK2; assay type: subcellular; conditions: lysate, at 0.04 µM
[2] = biological target: T1, Tyrosine-protein kinase Mer (Homo sapiens) (UniProt Q12866); test: Selectivity interaction (KinomeScan (DiscoverX)) EUB0000655a MERTK; conditions: at 10 µM
T1 sequence (whole entry): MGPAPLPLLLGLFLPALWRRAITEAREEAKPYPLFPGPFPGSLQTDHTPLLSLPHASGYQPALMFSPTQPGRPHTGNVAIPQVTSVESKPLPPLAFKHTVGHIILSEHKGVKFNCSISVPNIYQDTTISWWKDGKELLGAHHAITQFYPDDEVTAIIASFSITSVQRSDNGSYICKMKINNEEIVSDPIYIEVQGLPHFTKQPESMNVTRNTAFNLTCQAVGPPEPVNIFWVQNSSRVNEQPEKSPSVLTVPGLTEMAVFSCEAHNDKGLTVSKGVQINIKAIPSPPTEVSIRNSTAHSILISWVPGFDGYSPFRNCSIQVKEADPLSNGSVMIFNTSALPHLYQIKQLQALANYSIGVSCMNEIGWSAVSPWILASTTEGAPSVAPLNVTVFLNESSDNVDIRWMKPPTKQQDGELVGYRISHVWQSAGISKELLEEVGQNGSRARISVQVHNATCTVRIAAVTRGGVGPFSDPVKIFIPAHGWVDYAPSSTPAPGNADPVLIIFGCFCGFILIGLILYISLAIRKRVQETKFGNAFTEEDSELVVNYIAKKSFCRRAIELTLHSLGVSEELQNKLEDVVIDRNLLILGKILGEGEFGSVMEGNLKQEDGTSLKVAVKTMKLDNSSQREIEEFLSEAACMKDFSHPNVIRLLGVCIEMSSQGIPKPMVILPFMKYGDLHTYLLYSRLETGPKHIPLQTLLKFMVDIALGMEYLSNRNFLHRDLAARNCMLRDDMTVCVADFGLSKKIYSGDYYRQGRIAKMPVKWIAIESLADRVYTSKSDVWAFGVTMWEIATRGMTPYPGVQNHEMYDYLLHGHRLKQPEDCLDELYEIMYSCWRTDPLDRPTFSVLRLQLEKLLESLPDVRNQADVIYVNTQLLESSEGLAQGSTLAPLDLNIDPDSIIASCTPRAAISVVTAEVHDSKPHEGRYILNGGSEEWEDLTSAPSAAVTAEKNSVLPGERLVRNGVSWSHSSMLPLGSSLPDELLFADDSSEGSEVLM

[3] = biological target: T2, Phosphatidylinositol 3-kinase C2 domain-containing subunit gamma (Homo sapiens) (UniProt O75747); test: Selectivity interaction (ProQinase) EUB0000171b PIK3C2G
T2 sequence (whole entry): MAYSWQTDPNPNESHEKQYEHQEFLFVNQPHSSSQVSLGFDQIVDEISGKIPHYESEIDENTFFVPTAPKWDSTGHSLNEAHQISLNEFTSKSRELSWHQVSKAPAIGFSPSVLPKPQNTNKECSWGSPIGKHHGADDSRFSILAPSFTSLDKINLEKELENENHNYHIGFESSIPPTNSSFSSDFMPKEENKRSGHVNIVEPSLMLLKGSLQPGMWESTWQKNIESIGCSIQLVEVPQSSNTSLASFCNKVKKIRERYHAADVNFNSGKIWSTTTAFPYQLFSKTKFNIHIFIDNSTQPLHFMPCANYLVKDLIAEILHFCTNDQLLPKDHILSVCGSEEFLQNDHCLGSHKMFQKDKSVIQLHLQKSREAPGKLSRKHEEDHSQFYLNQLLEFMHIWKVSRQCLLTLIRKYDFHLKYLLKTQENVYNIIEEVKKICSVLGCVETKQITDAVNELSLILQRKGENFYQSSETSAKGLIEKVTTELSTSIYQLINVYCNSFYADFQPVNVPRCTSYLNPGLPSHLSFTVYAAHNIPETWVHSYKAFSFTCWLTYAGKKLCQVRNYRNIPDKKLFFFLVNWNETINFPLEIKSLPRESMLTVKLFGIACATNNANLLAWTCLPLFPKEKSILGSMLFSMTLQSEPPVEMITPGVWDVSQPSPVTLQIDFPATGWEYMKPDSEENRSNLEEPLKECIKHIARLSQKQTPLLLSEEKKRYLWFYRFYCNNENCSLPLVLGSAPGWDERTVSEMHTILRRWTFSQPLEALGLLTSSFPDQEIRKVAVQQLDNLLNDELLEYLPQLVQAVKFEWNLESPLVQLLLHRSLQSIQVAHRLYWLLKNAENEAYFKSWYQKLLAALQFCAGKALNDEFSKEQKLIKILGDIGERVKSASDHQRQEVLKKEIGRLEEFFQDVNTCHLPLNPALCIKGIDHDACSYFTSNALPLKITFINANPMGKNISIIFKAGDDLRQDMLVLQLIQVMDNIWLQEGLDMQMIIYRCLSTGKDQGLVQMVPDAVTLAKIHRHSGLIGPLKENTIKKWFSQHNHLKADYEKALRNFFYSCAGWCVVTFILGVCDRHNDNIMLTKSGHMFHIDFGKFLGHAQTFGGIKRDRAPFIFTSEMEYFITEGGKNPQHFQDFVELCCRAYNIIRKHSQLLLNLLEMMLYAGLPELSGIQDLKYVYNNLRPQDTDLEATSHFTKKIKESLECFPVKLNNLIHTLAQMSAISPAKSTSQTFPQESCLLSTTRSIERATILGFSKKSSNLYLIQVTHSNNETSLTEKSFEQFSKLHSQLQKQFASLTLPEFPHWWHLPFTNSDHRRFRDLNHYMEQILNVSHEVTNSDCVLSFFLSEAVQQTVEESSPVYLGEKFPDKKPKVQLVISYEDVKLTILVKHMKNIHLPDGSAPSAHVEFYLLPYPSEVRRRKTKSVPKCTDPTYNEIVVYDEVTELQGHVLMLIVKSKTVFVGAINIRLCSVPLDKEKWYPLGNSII

Sequence of Serine/threonine-protein kinase WNK2 (Homo sapiens) (Q9Y3S1 whole entry): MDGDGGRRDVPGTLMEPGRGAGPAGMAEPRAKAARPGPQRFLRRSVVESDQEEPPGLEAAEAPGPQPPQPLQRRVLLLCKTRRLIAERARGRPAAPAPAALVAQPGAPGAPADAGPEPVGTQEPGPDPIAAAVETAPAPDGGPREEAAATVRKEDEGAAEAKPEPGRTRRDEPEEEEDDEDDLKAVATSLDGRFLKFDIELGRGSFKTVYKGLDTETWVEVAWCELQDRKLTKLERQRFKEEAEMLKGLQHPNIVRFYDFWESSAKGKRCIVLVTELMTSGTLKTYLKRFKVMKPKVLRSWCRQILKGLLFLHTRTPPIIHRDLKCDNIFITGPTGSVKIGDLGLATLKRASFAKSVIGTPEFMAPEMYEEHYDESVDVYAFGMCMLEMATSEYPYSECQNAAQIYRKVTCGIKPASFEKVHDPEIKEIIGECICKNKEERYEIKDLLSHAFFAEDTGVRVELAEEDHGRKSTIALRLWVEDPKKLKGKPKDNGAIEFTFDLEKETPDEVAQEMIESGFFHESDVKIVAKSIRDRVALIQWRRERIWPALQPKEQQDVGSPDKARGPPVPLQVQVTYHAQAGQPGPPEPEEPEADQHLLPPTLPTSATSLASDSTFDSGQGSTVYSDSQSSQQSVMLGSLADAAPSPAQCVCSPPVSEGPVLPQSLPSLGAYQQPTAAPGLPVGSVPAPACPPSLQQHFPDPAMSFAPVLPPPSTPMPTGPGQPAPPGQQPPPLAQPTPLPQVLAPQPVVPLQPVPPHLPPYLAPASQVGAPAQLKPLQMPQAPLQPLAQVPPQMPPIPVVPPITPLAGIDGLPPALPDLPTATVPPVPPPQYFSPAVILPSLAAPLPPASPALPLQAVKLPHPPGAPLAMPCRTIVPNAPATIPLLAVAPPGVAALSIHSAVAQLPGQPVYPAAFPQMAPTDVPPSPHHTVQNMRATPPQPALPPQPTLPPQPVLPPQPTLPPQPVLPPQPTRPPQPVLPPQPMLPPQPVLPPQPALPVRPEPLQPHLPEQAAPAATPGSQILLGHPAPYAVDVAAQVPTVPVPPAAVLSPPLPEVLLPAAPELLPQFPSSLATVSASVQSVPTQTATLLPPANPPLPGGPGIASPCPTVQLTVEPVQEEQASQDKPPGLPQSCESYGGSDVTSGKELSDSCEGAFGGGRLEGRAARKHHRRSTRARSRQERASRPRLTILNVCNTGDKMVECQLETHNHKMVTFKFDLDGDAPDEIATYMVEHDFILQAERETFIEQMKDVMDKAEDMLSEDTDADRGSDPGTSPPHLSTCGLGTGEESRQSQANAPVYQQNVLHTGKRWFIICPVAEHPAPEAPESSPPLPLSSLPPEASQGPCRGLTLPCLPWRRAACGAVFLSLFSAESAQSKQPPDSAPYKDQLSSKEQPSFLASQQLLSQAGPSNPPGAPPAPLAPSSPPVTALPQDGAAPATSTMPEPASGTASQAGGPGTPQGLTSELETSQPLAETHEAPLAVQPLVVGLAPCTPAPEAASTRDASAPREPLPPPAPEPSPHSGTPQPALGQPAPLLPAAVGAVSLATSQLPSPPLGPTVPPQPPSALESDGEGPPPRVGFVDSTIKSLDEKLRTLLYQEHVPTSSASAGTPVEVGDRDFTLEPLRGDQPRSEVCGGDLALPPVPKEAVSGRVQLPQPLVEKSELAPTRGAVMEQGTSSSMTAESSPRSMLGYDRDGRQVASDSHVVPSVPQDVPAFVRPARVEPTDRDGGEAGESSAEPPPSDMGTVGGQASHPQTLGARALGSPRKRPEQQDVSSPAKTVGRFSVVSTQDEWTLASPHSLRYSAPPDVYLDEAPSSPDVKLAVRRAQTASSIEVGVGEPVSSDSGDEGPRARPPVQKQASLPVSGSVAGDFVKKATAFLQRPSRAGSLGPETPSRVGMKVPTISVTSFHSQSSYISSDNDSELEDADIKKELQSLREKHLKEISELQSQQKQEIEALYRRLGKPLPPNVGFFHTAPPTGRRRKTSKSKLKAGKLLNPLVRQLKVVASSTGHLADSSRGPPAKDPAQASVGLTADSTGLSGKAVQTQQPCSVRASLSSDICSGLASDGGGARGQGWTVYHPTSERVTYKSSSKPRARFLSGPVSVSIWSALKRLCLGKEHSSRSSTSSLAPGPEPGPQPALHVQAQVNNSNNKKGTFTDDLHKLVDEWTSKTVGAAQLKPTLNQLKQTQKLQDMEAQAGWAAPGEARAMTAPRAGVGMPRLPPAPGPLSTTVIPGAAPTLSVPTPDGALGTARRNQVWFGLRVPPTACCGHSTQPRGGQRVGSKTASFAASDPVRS

CC[C@@H]1[C@H](F)C(=O)N[C@@H]1COc1nccc2cc(C(N)=O)c(OC)cc12 [ZIMLOVISERTIB]
% of inhibition [1]: -7.4%

CN(C)CCOc1ccc(-c2nc(-c3ccncc3)c(-c3ccc4c(c3)CC/C4=N\O)[nH]2)cc1
% of control [2]: 87%

C=CC(=O)Nc1cccc(C(=O)Nc2ccc(Nc3cc(-c4[nH]c(SC)nc4C)ccn3)cc2)c1
% of control ([3]; at 1 µM): 129% | % of control ([3]; at 5 µM): 108%
